Assays:
[1] = target: C. perfringens (CpGUS) β-Glucuronidase (Clostridium perfringens, UniProt Q8XP19); experiment: biochemical
[2] = target: S. agalactiae (SaGUS) β-Glucuronidase (Streptococcus agalactiae serotype V, UniProt Q8E0N2); experiment: biochemical
[3] = target: E. coli (EcGUS) β-Glucuronidase (Escherichia coli, UniProt P05804); experiment: In vitro GUS inhibition, PNPG cleavage by purified E. coli GUS; assay type: biochemical; conditions: PNPG substrate, 37° C., 2 hours; NI = no inhibition
Procedure: To assess GUS inhibition, cleavage of p-nitrophenyl-β-D-glucuronide (PNPG) by purified E. coli GUS in the presence of inhibitor was measured. The reaction was performed in 96-well clear-bottom plates at a volume of 50 μL. Each reaction contained 5 μL of 100 nM E. coli GUS, 5 μL of inhibitor at various concentrations, 10 μL of 250 mM HEPES and 250 mM NaCl assay buffer, and 30 μL of 1.5 mM PNPG. The reaction was initiated by addition of PNPG and incubated at 37° C. for 2 hours. End point absorbance values at 410 nm were measured using a PHERAstar Plus microplate reader. The resulting data were fit with a four-parameter logistic log function in SigmaPlot 13.0 to determine IC50 values. IC50 was defined as the concentration of inhibitor that yields a 50% reduction in product formation at equilibrium.

E. coli (EcGUS) β-Glucuronidase, sequence (P05804 whole entry): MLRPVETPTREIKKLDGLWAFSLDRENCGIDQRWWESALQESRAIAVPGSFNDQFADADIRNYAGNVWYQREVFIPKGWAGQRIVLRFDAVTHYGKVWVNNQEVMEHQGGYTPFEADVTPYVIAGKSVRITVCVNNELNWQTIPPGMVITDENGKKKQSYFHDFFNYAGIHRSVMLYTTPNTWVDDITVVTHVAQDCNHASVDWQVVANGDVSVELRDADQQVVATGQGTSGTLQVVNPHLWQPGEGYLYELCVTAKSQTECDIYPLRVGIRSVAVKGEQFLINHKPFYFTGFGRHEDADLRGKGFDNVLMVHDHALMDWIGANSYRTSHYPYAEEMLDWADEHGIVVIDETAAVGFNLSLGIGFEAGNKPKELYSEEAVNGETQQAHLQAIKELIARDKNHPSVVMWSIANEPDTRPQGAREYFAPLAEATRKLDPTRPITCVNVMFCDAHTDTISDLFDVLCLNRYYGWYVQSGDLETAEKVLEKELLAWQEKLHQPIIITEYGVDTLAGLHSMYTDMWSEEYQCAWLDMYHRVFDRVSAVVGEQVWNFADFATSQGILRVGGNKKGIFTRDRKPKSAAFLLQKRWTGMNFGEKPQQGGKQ
C. perfringens (CpGUS) β-Glucuronidase, sequence (Q8XP19 whole entry, looked up): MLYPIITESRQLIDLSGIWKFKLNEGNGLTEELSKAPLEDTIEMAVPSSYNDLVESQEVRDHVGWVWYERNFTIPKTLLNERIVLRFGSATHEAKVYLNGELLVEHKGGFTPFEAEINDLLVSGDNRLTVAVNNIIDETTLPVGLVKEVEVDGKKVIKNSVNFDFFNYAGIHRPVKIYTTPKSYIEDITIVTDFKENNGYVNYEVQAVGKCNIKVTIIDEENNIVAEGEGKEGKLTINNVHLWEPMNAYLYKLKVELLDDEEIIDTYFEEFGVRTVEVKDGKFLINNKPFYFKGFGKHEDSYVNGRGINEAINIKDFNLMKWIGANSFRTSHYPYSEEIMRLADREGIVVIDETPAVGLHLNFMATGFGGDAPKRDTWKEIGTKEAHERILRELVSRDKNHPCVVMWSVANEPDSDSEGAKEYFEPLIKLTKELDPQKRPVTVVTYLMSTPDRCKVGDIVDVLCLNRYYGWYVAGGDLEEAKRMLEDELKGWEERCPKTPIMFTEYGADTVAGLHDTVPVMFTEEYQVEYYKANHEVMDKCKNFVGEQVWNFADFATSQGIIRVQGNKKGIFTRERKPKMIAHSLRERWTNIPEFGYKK
S. agalactiae (SaGUS) β-Glucuronidase, sequence (Q8E0N2 whole entry): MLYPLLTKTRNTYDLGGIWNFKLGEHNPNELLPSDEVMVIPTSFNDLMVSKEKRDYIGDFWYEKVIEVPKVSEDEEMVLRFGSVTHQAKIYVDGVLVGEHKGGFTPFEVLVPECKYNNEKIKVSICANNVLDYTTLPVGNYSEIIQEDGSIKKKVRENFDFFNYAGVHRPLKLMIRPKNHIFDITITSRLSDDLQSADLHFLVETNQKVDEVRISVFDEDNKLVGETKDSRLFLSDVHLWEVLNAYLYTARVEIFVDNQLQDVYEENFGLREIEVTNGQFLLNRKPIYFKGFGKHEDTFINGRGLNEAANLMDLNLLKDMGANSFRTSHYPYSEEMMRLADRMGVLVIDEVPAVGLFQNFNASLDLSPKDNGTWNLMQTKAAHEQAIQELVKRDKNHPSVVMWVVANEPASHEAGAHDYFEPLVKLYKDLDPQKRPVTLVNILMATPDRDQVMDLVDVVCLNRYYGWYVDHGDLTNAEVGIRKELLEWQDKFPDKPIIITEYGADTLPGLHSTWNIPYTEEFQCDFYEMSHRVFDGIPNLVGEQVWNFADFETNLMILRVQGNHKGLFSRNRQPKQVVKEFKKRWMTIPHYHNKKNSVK

Compound	IC50 [1] [nM]	IC50 [2] [nM]	IC50 [3] [nM]
c1cnc2sc3c(N4CCNCC4)ncnc3c2c1 [Compound 30]	577 ± 9	3000 ± 2000	–
C1CCc2c(c(N3CCOCC3)nc3sc4c(N5CCNCC5)nnnc4c23)C1 [Inh9, reference compound]	154	117	–
c1ccc(-c2ccc3c(n2)sc2c(N4CCNCC4)nnnc23)cc1 [Compound 22]	230 ± 30	700 ± 100	–
C[N+]1(C)CCN(c2nnnc3c2sc2nc(N4CCOCC4)c4c(c23)CCCC4)CC1 [Compound 52]	–	–	6000 ± 100
CNc1nc2sc3c(N4CCNCC4)nnnc3c2c2c1CCCC2 [Compound 16]	180 ± 10	39 ± 8	70 ± 10
C1CCc2c(c(N3CCNCC3)nc3sc4c(N5CCNCC5)nnnc4c23)C1 [Compound 12]	120 ± 20	63 ± 6	–
NN1CCN(c2nnnc3c2sc2nc(N4CCOCC4)c4c(c23)CCCC4)CC1 [Compound 3]	4500 ± 200	6700 ± 400	5000 ± 500
CNc1nc(N2CCNCC2)c2sc3nc(N4CCOCC4)ccc3c2n1 [Compound 21]	100 ± 10	340 ± 50	–
CC1(C)CCc2c(N3CCOCC3)nc3sc4c(N5CCNCC5)nnnc4c3c2C1 [Compound 49]	–	–	620 ± 50
OCCNc1nc(N2CCNCC2)c2sc3nc(-c4ccccc4)ccc3c2n1 [Compound 26]	410 ± 40	490 ± 60	–
CNc1nc(N2CCNCC2)c2sc3nc(-c4ccccc4)ccc3c2n1 [Compound 24]	450 ± 10	480 ± 30	–
C[C@H]1CN(c2nnnc3c2sc2nc(N4CCOCC4)c4c(c23)CCCC4)CCN1 [Compound 7]	4200 ± 300	550 ± 60	–
C1CCc2c(c(N3CCOCC3)nc3sc4c(NC5CCNCC5)nnnc4c23)C1 [Compound 4]	5700 ± 600	70000 ± 20000	–
COc1nc(N2CCNCC2)c2sc3nc(-c4ccccc4)ccc3c2n1 [Compound 45]	–	–	140 ± 8
CNc1nc(N2CCNCC2)c2sc3nc(N(C)C)ccc3c2n1 [Compound 28]	280 ± 50	500 ± 200	–
Clc1nc(N2CCNCC2)c2sc3nc(N4CCOCC4)c4c(c3c2n1)CCCC4 [Compound 51]	–	–	900 ± 60
c1ccc(CNc2nc3sc4c(N5CCNCC5)nnnc4c3c3c2CCCC3)cc1 [Compound 17]	290 ± 10	90 ± 20	–
CN(C)c1nc2sc3c(N4CCNCC4)nnnc3c2c2c1CCCC2 [Compound 15]	180 ± 6	62 ± 5	–

Compound	IC50 [1] [nM]	IC50 [2] [nM]	IC50 [3] [nM]
C1CCC(Nc2nc3sc4c(N5CCNCC5)nnnc4c3c3c2CCCC3)CC1 [Compound 14]	480 ± 10	320 ± 50	–
CC1CN(c2nnnc3c2sc2nc(N4CCOCC4)c4c(c23)CCCC4)CCN1 (stereo not drawn) [Compound 44]	–	–	5400 ± 600
c1cnc2sc3c(N4CCNCC4)nnnc3c2c1 [Compound 46]	–	–	1400 ± 40
C[C@@H]1CN(c2nnnc3c2sc2nc(N4CCOCC4)c4c(c23)CCCC4)CCN1 [Compound 6]	3900 ± 100	550 ± 70	–
CN(C)c1ccc2c(n1)sc1c(N3CCNCC3)nnnc12 [Compound 27]	220 ± 20	1000 ± 200	–
Clc1nc(N2CCNCC2)c2sc3nc(N4CCOCC4)ccc3c2n1 [Compound 47]	–	–	30 ± 3
c1cc2c(nc1N1CCOCC1)sc1c(N3CCNCC3)nnnc12 [Compound 19]	220 ± 20	640 ± 60	–
CNc1nc(N2CCNCC2)c2sc3ncccc3c2n1 [Compound 31]	900 ± 300	2000 ± 1500	–
C1CCc2c(c(N3CCOCC3)nc3sc4c(N5CCCNCC5)nnnc4c23)C1 [Compound 8]	13700 ± 600	5000 ± 1000	–
c1nc(N2CCNCC2)c2sc3nc(N4CCOCC4)ccc3c2n1 [Compound 20]	53 ± 4	690 ± 30	130 ± 10
CNc1ccc2c(n1)sc1c(N3CCNCC3)nc(NC)nc12 [Compound 29]	660 ± 90	550 ± 70	–
CN(C)c1nc2sc3c(NCCN)nnnc3c2c2c1CCCC2 [Compound 50]	–	–	12000 ± 2000
CN1CCN(c2nnnc3c2sc2nc(N4CCOCC4)c4c(c23)CCCC4)CC1 [Compound 2]	14300 ± 300	22000 ± 7000	–
Fc1ccc(CNc2nc3sc4c(N5CCNCC5)nnnc4c3c3c2CCCC3)cc1 [Compound 48]	–	–	208 ± 3
c1ccc(-c2ccc3c(n2)sc2c(N4CCNCC4)ncnc23)cc1 [Compound 23]	440 ± 40	550 ± 70	–
C1CCc2c(c(N3CCOCC3)nc3sc4c(N5CC6CC5CN6)nnnc4c23)C1 (stereo not drawn) [Compound 5]	4500 ± 300	2700 ± 500	–
C1CCN(c2nc3sc4c(N5CCNCC5)nnnc4c3c3c2CCCC3)CC1 [Compound 13]	350 ± 20	180 ± 20	–
CN(C)c1nc(N2CCNCC2)c2sc3nc(-c4ccccc4)ccc3c2n1 [Compound 25]	160 ± 20	270 ± 30	–
